Measurements taken from patent US20060287316A1, “METHOD FOR IMPROVING PHARMACOKINETICS OF PROTEASE INHIBITORS AND PROTEASE INHIBITOR PRECURSORS” (priority 2005, published 2006).

Legend:
[1] = Plasma concentration after single oral dose in rats (in vivo cleavage of the phosphate group); design: species or system male Sprague-Dawley rats; details: 50 mg/Kg po, vehicle Mix, 3 rats
Procedure: To assess the extent of in vivo cleavage of the phosphate group from the putative compounds, PL-100, PL-462 (based on PL-100), PL-337 and PL-515 (based on PL-337) compounds were administered po (per os, (i.e., by mouth)) (50 mg/kg) to male Sprague-Dawley rats and their plasma concentration measured at different time intervals post-administration.
All test articles (PL-100, PL-462, PL-337 and PL-515) were prepared in different vehicle at the final concentration of 25 mg/mL. The vehicle composition is as follows: (1) 20% ethanol; 50% propylene glycol; 0.05% w/v Tween 20 and water (Mix); (2) PBS buffer (PBS).
Test articles were administered to male Sprague-Dawley rats at a single oral dose of 50 mg/kg. Each article was tested in three rats. Blood samples (0.2-0.3 mL) were collected at the post-dose time of 10, 20, 40, 60, 120, 180 and 360 minutes. The harvested blood was centrifuged to isolate plasma. The resulting plasma was separated and stored at −70° C.
Plasma samples together with standards and quality control samples were treated to precipitate proteins, then analyzed by HPLC-MS, for the presence of PL-462, PL-100, PL-515 and PL-337.

[2] = Partition coefficient (LogP), octanol / phosphate buffer; assay type: physicochemical; details: octanol / phosphate buffer pH 7.4
Excerpt: The concentration of the compounds in the phases was detected by LC-MS.

AUC [1]: 1.180 ± 0.196 μg/hr * ml
Cmax ([1]; male, Sprague-Dawley, rat, plasma): 681 ± 131 nM
Tmax ([1]; male, Sprague-Dawley, rat, plasma, read-out: Tmax (converted)): 1 h
logP [2]: 3.8
Structure (SMILES): COC(=O)N[C@H](C(=O)NCCCC[C@@H](CO)N(CC(C)C)S(=O)(=O)c1ccc(N)c(F)c1)C(c1ccccc1)c1ccccc1 [PL-337, (1-{5-[(4-amino-3-fluoro-benzenesulfonyl)-isobutyl-amino]-6-hydroxy-hexylcarbamoyl}-2,2-diphenyl-ethyl)-carbamic acid methyl ester]
